How the values were obtained:
primary human islets = assay: Insulin secretion assay in primary human islets; type: cell-based; conditions: 25 to 100 μM; compared with Forskolin/IBMX
Procedure: Islets were isolated from two human donor pancreases. Intact islets (n = 20 per well) were seeded on ultra-low attachment 96-well plate. After 3 days of culture, the pancreatic islets were washed two times with 115 mM NaCl, 5 mM KCl, 24 mM NaHCO3, 2.2 mM CaCl2, 1 mM MgCl2, 20 mM HEPES, and 0.2% human serum albumin (incubation buffer) and primed for 1.5 h at 37°C in incubation buffer supplemented with 2 mM glucose (low glucose). Subsequently, the cells were incubated in fresh incubation buffer supplemented with 2 mM glucose for 1 h to measure the basal insulin secretion levels. […] The cell supernatants were collected immediately after incubation with low and high glucose. The insulin concentrations were measured by ELISA (Insulin ELISA Kit, Mercodia). The insulin secretion was expressed as the ratio of insulin concentration at high and low glucose concentrations for each well (insulin secretion index).

Epac2^Δ280,K405Q = target: T1, Epac2^Δ280,K405Q (Mus musculus, UniProt Q9EQZ6, K423Q); assay: Epac activation assay, Epac2 K405Q mutant; type: biochemical
T1 construct: made in house
T1 sequence (Q9EQZ6 281-993 isoform Q9EQZ6-3 K405Q): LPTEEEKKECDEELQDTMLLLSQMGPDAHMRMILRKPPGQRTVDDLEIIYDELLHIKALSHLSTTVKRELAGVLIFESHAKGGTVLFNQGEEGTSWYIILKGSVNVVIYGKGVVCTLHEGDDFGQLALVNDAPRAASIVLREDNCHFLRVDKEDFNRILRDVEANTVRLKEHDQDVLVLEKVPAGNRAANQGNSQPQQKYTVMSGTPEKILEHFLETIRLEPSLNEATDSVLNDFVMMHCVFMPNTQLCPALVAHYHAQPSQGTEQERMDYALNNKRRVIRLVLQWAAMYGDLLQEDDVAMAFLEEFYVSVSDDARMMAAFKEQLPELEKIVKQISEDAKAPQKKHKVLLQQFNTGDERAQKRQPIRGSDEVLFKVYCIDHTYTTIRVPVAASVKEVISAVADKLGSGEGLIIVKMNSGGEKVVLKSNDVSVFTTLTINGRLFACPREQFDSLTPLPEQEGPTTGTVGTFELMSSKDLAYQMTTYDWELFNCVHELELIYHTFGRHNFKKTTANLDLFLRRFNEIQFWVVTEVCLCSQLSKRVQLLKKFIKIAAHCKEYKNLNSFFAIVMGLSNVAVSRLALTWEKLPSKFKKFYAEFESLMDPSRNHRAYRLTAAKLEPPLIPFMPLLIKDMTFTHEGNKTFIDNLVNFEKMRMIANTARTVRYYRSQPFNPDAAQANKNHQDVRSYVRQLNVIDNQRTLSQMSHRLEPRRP
Procedure: Murine Epac2 was used as all previous structural studies were performed with it.
The activity of Epac was determined by a fluorescence assay. […] The fluorescence intensity of Rap1B•mGDP is approximately twice that of free mGDP, and thus, nucleotide exchange can be observed as a decay in fluorescence upon the addition of excess unlabeled GDP.

Epac1^Q270K = target: T2, Epac1^Q270K (Homo sapiens, UniProt O95398, Q312K); assay: Epac activation assay, Epac1 Q270K mutant; type: biochemical
T2 construct: made in house
T2 sequence (O95398 150-881 isoform O95398-3 Q270K): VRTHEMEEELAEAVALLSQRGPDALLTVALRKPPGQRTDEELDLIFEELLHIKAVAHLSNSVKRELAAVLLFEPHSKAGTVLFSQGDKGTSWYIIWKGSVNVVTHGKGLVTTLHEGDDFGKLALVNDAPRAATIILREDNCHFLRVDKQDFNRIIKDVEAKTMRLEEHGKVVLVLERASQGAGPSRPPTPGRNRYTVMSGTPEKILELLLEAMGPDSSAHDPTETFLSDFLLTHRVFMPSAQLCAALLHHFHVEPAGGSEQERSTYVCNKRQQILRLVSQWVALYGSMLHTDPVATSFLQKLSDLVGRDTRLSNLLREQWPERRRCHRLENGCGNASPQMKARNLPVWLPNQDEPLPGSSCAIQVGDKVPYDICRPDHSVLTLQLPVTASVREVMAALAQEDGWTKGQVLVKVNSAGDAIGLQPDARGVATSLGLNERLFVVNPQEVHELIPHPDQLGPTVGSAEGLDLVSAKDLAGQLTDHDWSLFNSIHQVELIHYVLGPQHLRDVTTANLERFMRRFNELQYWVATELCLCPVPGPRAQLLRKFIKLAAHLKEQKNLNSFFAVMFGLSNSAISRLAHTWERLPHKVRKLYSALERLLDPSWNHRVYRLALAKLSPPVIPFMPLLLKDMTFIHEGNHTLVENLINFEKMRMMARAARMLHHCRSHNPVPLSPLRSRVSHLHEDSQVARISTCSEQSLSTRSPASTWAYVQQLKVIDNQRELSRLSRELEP

Epac2^fl = target: T3, Epac2^fl (Mus musculus, UniProt Q9EQZ6); conditions: footnote b, see also ref 11; cited from earlier work
T3 sequence (Q9EQZ6 1-993 isoform Q9EQZ6-3): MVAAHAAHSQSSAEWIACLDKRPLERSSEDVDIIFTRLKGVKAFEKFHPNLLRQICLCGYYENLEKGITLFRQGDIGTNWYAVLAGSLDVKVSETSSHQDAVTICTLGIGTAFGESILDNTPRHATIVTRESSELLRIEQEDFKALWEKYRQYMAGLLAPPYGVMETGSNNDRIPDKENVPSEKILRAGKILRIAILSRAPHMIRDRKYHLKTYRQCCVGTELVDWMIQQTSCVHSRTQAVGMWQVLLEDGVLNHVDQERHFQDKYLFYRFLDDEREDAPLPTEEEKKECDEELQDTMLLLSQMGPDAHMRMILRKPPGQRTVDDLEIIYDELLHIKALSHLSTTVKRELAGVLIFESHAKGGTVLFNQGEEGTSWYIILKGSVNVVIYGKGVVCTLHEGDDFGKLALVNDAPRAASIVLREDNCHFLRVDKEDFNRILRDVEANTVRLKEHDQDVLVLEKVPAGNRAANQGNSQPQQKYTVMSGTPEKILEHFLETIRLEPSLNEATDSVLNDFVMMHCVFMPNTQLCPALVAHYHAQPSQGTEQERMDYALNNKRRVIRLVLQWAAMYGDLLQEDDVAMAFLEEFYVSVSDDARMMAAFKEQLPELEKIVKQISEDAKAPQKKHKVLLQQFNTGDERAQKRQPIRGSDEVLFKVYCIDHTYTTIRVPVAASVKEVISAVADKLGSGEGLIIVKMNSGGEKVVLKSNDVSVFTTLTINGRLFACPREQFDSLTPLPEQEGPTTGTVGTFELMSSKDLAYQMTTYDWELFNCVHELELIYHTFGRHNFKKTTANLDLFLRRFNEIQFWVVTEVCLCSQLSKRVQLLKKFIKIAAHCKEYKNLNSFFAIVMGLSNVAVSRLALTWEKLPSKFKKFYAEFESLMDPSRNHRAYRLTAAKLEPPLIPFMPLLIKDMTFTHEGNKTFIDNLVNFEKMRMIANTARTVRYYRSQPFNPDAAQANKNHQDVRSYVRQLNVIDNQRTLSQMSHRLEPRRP

Nc1ncnc2c1nc(SCc1ccccc1)n2[C@@H]1O[C@@H]2CO[P@](O)(=S)O[C@H]2[C@H]1O [S-220, Sp-8-BnT-cAMPS]
glucose-induced insulin secretion (primary human islets): potentiates glucose-induced insulin secretion with similar efficiency

COC1C2OP(=O)(O)OCC2OC1n1c(Sc2ccc(Cl)cc2)nc2c(N)ncnc21 [D-007, 8-pCPT-2′-O-Me-cAMP, reference compound]
activation (Epac2^Δ280,K405Q): efficiently activated | activation (Epac1^Q270K): poorly activated

Nc1ncnc2c1ncn2[C@@H]1O[C@@H]2COP(=O)(O)O[C@H]2[C@H]1O [cAMP, reference compound]
Rel. kmax (Epac2^fl): 1.0^b

From publication PMC4300089, “Structure-Guided Design of Selective Epac1 and Epac2 Agonists” (PLoS Biology, 2015)
